The Ki is the dissociation constant of the complex between target and ligand, obtained from inhibition or displacement.

Assay [1] addresses Gamma-aminobutyric acid receptor subunit alpha-2 (Rattus norvegicus, UniProt P23576).
Assay [2] has as its target Gamma-aminobutyric acid receptor subunit alpha-3 (Rattus norvegicus, UniProt P20236).
The target of assay [3] is Gamma-aminobutyric acid receptor subunit alpha-5 (Rattus norvegicus, UniProt P19969).
For assay [4], the target named is Gamma-aminobutyric acid receptor subunit alpha-1 (Rattus norvegicus, UniProt P62813).
Chain of Gamma-aminobutyric acid receptor subunit alpha-1 (P62813 whole entry): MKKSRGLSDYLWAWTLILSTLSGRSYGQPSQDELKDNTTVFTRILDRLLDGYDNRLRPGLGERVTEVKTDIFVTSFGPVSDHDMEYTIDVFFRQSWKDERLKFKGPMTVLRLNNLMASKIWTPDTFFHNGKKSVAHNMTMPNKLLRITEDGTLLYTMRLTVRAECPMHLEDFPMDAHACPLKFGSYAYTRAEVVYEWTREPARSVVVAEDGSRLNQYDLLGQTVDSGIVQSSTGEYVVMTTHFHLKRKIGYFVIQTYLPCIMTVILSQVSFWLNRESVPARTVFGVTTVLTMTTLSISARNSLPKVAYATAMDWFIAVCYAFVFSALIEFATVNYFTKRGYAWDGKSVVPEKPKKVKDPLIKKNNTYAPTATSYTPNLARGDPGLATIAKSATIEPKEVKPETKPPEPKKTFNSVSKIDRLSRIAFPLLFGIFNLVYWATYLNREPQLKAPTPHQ
For assay [5], the target named is Gamma-aminobutyric acid receptor subunit alpha-4 (Rattus norvegicus, UniProt P28471).
Chain of Gamma-aminobutyric acid receptor subunit alpha-4 (P28471 whole entry): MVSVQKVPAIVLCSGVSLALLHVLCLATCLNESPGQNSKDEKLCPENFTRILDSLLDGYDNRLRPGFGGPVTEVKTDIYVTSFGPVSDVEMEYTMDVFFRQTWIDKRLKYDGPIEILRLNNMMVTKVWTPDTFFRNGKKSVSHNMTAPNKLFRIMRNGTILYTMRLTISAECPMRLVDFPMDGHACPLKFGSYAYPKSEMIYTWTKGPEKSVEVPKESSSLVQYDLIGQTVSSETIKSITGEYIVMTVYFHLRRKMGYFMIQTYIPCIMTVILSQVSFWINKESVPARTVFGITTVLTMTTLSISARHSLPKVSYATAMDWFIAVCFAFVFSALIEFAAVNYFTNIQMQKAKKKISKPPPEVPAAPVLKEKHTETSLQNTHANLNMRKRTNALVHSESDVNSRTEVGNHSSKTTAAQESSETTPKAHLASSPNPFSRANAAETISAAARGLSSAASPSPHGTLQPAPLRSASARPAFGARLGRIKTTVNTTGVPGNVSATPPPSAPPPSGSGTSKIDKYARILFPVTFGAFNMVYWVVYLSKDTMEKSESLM
In assay [6] the target is Gamma-aminobutyric acid receptor subunit alpha-6 (Rattus norvegicus, UniProt P30191).
Chain of Gamma-aminobutyric acid receptor subunit alpha-6 (P30191 whole entry): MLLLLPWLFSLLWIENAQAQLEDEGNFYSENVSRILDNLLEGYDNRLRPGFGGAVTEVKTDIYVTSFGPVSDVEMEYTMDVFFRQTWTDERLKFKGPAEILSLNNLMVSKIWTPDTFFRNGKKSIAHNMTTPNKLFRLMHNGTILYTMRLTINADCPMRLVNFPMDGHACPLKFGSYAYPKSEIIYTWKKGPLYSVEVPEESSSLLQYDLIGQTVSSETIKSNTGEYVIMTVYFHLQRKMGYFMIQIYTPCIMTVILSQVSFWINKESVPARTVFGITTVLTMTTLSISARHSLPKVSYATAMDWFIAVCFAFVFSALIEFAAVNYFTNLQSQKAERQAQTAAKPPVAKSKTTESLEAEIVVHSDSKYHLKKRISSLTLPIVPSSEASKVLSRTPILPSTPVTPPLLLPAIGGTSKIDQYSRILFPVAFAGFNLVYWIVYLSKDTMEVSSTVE

Chain of Gamma-aminobutyric acid receptor subunit alpha-3 (P20236 whole entry I342M/K409L): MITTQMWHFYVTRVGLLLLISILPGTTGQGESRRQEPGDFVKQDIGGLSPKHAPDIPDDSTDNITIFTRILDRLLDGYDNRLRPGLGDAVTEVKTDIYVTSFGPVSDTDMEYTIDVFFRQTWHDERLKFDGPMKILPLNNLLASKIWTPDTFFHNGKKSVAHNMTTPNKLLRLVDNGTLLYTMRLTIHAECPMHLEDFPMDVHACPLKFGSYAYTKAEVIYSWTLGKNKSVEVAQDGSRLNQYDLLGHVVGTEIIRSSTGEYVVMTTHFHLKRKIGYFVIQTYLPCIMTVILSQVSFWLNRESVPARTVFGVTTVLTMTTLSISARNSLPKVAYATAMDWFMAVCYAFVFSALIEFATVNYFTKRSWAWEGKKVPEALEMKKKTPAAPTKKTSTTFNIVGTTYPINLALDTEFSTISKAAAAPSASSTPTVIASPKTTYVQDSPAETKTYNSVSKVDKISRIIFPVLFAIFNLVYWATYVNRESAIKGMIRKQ
Chain of Gamma-aminobutyric acid receptor subunit alpha-5 (P19969 whole entry): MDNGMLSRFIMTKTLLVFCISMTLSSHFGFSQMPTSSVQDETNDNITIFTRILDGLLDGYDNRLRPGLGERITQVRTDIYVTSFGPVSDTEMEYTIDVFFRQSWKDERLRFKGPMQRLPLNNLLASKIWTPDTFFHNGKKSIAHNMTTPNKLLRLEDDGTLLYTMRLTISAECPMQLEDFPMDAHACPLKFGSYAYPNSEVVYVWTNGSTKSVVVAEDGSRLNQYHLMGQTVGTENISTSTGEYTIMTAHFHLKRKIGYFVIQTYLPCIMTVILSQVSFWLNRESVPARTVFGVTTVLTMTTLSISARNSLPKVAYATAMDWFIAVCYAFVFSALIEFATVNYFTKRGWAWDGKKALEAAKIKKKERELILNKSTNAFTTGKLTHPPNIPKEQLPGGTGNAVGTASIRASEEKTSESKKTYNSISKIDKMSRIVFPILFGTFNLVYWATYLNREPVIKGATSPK
Chain of Gamma-aminobutyric acid receptor subunit alpha-2 (P23576 whole entry): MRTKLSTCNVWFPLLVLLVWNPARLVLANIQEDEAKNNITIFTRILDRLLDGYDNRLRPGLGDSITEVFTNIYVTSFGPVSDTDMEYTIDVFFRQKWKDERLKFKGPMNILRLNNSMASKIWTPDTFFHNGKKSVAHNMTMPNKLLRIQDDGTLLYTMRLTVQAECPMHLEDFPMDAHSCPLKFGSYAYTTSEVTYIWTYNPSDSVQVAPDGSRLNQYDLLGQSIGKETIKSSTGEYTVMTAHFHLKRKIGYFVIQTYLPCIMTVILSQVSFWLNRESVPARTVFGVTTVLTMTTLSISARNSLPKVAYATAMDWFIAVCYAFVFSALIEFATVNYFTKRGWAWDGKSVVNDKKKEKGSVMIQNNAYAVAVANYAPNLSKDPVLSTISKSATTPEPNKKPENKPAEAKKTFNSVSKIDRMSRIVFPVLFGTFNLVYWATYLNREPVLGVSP

For the molecule `CC(=O)C1CCC2C3CC[C@H]4C[C@H](O)CC[C@]4(C)C3CC[C@]12C` (stereo partly specified) [Allopregnanolone], the Ki in assay [1] was found to be 41 nM; in assay [2], 20 nM; in assay [3], 21 nM; in assay [4], 17.5 nM; in assay [5] it was 1900 nM.
As for `C[C@]12CC[C@H]3[C@@H](CC[C@@H]4C[C@@](O)(C(F)(F)F)CC[C@@H]43)[C@@H]1CC[C@@H]2C(=O)CO` [GMA-839], the Ki in assay [1] was determined as 200 nM; in assay [6], 2000 nM; in assay [2], 96 nM; in assay [3], 210 nM; in assay [4], 200 nM; in assay [5], 2300 nM.

These data come from BindingDB's records for PubMed 10991999 (Cocensys, 2000).
